According to BigSolDB 2.1:

CC(C)(C)NCC(O)c1ccc(O)c(CO)c1 (stereo not given)
solubility (mole fraction)
Conditions	in acetone	in ethanol	in ethyl acetate	in isobutanol	in isopropanol	in methanol	in methyl acetate	in n-butanol	in n-propanol	in sec-butanol
283.15 K	0.000146	0.00218	0.000185	0.00154	0.00185	0.00599	0.000377	0.00109	0.00212	0.00102
288.15 K	0.000162	0.00228	0.000204	0.00172	0.00205	0.00671	0.00041	0.0012	0.00235	0.00115
293.15 K	0.000185	0.00271	0.000231	0.00192	0.00244	0.00745	0.000441	0.00134	0.00267	0.00131
298.15 K	0.000211	0.00323	0.000261	0.00217	0.00278	0.00824	0.000471	0.00151	0.00317	0.00145
303.15 K	0.000237	0.00412	0.00029	0.00243	0.00331	0.00909	0.000509	0.00168	0.0036	0.00163
308.15 K	0.000271	0.0049	0.000323	0.00272	0.00382	0.0101	0.000545	0.00187	0.00413	0.00182
313.15 K	0.000302	0.00585	0.000363	0.00304	0.00441	0.0112	0.00059	0.00211	0.00479	0.00202
318.15 K	0.000346	0.00709	0.000399	0.00343	0.00512	0.0124	0.000631	0.00233	0.00552	0.00227
323.15 K	0.000396	0.00846	0.000452	0.00385	0.00597	0.0137	0.000682	0.00262	0.00634	0.00252
328.15 K	0.000451	0.0103	0.000501	0.00432	0.00698	0.0152	0.000735	0.00292	0.00743	0.00286
